{
  "source": "patent US20250051323A1",
  "about": "(RICHTER GEDEON NYRT., priority 2021, published 2025)",
  "key": {"[1]": {"settings": "rats, developmental models of schizophrenia; cited from earlier work"}, "[2]": {"settings": "cited from earlier work"}, "[3]": {"settings": "mouse stress models and aged mice; cited from earlier work"}, "[4]": {"settings": "low dose; cited from earlier work"}, "[5]": {"target": "T1, human recombinant GABAA α5β3γ2 receptor (Homo sapiens (Human), UniProt P18507+P31644)", "T1 sequence (P31644 32-462)": "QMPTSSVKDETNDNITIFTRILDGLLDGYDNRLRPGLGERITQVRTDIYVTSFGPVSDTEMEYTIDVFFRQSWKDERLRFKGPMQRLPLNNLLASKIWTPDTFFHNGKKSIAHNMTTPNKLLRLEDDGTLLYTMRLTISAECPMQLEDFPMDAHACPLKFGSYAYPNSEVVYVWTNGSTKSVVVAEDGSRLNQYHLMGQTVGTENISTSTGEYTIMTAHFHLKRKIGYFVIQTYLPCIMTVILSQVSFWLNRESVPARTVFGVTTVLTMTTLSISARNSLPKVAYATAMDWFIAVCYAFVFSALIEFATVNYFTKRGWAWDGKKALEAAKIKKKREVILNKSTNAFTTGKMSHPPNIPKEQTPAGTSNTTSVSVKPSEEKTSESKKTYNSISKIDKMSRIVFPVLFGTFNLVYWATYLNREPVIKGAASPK", "T1 sequence (P28472 26-473 partner)": "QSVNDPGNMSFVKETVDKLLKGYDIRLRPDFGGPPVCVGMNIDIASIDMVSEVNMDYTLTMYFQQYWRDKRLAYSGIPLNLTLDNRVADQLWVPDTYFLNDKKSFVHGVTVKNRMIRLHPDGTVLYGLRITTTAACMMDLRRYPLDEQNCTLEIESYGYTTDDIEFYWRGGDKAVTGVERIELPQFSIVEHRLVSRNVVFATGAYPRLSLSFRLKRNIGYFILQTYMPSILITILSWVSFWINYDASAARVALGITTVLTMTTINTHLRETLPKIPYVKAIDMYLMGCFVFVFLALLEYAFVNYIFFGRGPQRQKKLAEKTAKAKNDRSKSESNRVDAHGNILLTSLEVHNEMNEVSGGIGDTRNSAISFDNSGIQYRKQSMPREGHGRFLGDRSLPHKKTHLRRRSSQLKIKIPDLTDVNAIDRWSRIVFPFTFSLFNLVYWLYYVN", "T1 sequence (P18507 40-475)": "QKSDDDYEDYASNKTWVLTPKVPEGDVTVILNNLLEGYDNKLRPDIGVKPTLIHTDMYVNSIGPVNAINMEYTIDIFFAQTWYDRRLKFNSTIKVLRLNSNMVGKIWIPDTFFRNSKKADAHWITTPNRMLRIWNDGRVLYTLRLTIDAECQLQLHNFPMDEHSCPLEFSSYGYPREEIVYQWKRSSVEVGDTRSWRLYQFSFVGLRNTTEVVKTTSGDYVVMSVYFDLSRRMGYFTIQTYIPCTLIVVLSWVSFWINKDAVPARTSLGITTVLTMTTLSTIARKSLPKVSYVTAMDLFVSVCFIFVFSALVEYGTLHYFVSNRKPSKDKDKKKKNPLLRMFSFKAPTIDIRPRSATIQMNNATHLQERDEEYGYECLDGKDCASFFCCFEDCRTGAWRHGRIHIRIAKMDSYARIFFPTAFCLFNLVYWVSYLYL", "assay": "Binding assay, [3H]Ro151788 displacement on HEK cell membranes", "settings": "[3H]Ro151788 0.5 nM, 60 minutes at 4° C., Cheng-Prusoff; read-out: hGABAA α5 Ki", "experimental": "The GABAA α5β3γ2 protein used for the receptor binding assay was derived from membranes produced from HEK cells (Millipore CYL3073) expressing the human recombinant GABAA α5β3γ2 receptor. Cells were stored and cultured in-house according to the instructions provided by the vendor (Millipore). Cell pellet was homogenized in 10 times modified Krebs Henseleit buffer (membrane preparation buffer): 20 mM Tris, 120 mM NaCl, 100 mM KCl, 25 mM CaCl2 and 25 mM MgCl2 pH=7.4 at 4° C. using Ultra Turrax (Janke&Kunkel) maximal speed for 15 seconds. The homogenate was centrifuged at 40,000 g for 30 minutes at 4° C. Supernatant was discarded and the resulting pellet was washed in membrane preparation buffer. Pellet was resuspended in membrane preparation buffer and aliquots of 1.4 mL ampules were stored at −70° C. until use.\nReceptor binding assays were performed in 96-well format in deep-well plates. For each 96-well plate one ampule of membrane homogenate was thawed and diluted in binding buffer (50 mM Tris pH=7.4, 100 mM KCl) and 200 μL was dispensed into each well. Radioligand [^3H]Ro151788 (Perkin Elmer: NET757250UC) was prepared in binding buffer and added to each well in 50 μL volume to give final concentration of 0.5 nM. Test compounds in suitable concentration(s) were added in additional 50 μL. The final assay volume was 300 μL. Incubation was carried out for 60 minutes at 4° C. For non-specific binding 10 μM unlabeled diazepam was used. […] The plate was dried at 40° C. for an hour and 40 μL Microscint (Perkin Elmer) scintillation cocktail was added to each well. The plate was read in Microbeta (Perkin Elmer).\nThe specific radioligand binding (SB) was defined as the difference between total binding (Tot) and the non-specific binding (NSB). Results are expressed as a percent inhibition of specific binding obtained in the presence of compound of interest.\nFor IC50 and Ki determination a minimum of six drug concentrations in triplicate were used. […] Ki values (i.e., inhibition constants) were calculated using the Cheng-Prusoff equation Ki=IC5O/[1+(L/KD)], where [L] is the radioligand concentration and KD the affinity of the labelled ligand for receptor. KD was determined from the Saturation analyses."}, "[6]": {"target": "T1, human recombinant GABAA α5β3γ2 receptor", "assay": "Functional assay, QPatch automated whole-cell patch clamp, modulation of GABA-evoked current", "format": "cell-based", "settings": "read-out: hGABAA α5 efficacy (percentage modulation of GABA-evoked peak current)", "experimental": "Human HEK293 cell lines expressing GABAAα5β3γ2 receptors were used in functional assays using the QPatch automated patch clamp system.\nHEK293 cell lines stably expressing human recombinant GABAA α5β3γ2 receptor subunits (Millipore, CYL3053) were cultured in DMEM supplemented with 10% FBS (Gibco), passed two times per week and plated on Petri dishes previously coated with poly-d-lysine.\nAutomated whole-cell patch clamp recordings were made from cells 2-4 days after plating.\nInward currents were evoked at a holding potential of −80 mV by 3-s-long applications of the control agonist GABA at 1 μM at 2-4-min intervals first in concentration-matched DMSO (0.1 or 0.3%) control solution for five times, then in the presence of the test compound for four times, finally in control solution again for three times (wash-out). At the end of the experiment 100 μM GABA was applied to saturate the GABA-response and to assess the efficacy of the control GABA application. Current signals were low-pass filtered at 100 Hz and recorded at a sampling rate of 1 kHz.\nThe percentage modulation was calculated from the comparison of GABA-evoked peak current amplitudes in the presence and absence of the test compound."}, "[7]": {"settings": "test compound 1 μM, GABA 1 μM, holding potential −80 mV"}},
  "note": "Counter-ions that a name gives are not always drawn. Like-named read-outs stand apart in the source and are kept apart here.",
  "data": [
    {"compound": "C#Cc1ccc2c(c1)C(c1ccccc1F)=N[C@H](C)c1c(C(=O)NC)ncn1-2", "note": "[MP-III-022]", "values": [
      {"measurement": "pathological changes of locomotor activity", "setting": "[1]", "result": "attenuated pathological changes of locomotor activity"},
      {"measurement": "cognitive performance", "setting": "[2]; young rats", "result": "improved cognitive performance"},
      {"measurement": "behavioural effects", "setting": "[3]", "result": "procognitive, anxiolytic and antidepressant effects"}
    ]},
    {"compound": "Cc1ccc(-n2nnc(C)c2COc2cc3c(nn2)CNCC3)cn1", "note": "[Compound 44]", "values": [
      {"measurement": "cognitive performance", "setting": "[2]; aged rats", "result": "improved cognitive performance"}
    ]},
    {"compound": "O=C1CN=C(c2ccccc2Cl)c2cc([N+](=O)[O-])ccc2N1", "note": "[clonazepam]", "values": [
      {"measurement": "symptoms in preclinical models of ASD", "setting": "[4]", "result": "ameliorate symptoms"}
    ]},
    {"compound": "C#Cc1ccc2c(c1)C(c1ccccc1F)=N[C@H](C)c1c(C(=O)OCC)ncn1-2", "note": "[SH-053-2′F—R—CH3]", "values": [
      {"measurement": "pathological changes of locomotor activity", "setting": "[1]", "result": "attenuated pathological changes of locomotor activity"},
      {"measurement": "behavioural effects", "setting": "[3]", "result": "procognitive, anxiolytic and antidepressant effects"}
    ]},
    {"compound": "Cc1ccc(-n2nnc(C)c2COc2cc3c(nn2)CN(CC2CCC2)CC3)cn1", "note": "[Example 45, 5-[5-({[7-(cyclobutylmethyl)-5H,6H,7H,8H-pyrido[3,4-c]pyridazin-3-yl]oxy}methyl)-4-methyl-1H-1,2,3-triazol-1-yl]-2-methylpyridine tartarate salt]", "values": [
      {"measurement": "Ki", "setting": "[5]", "result": 99.5, "unit": "nM"},
      {"measurement": "activation at 1 µM", "setting": "[6]", "result": 97, "unit": "%"}
    ]},
    {"compound": "Cc1ccc(-c2noc(C)c2COc2cc3c(nn2)CN(C)CC3)cn1", "note": "[Example 16, 2-methyl-5-{5-methyl-4-[({7-methyl-5H,6H,7H,8H-pyrido[3,4-c]pyridazin-3-yl}oxy)methyl]-1,2-oxazol-3-yl}pyridine]", "values": [
      {"measurement": "Ki", "setting": "[5]", "result": 5.6, "unit": "nM"},
      {"measurement": "activation at 1 µM", "setting": "[6]; [7]", "result": 146, "unit": "%"}
    ]},
    {"compound": "Cc1ccc(-c2noc(C)c2COc2cc3c(cn2)CN(C2CCOC2)CC3)cn1", "note": "(stereo not drawn) [Example 9, 6-{[5-methyl-3-(6-methylpyridin-3-yl)-1,2-oxazol-4-yl]methoxy}-2-(oxolan-3-yl)-1,2,3,4-tetrahydro-2,7-naphthyridine]", "values": [
      {"measurement": "Ki", "setting": "[5]", "result": 4.9, "unit": "nM"},
      {"measurement": "activation at 1 µM", "setting": "[6]; [7]", "result": 106, "unit": "%"}
    ]},
    {"compound": "Cc1ccc(-c2noc(C)c2COc2cc3c(cn2)CN(C2CCOCC2)CC3)cn1", "note": "[Example 11, 6-{[5-methyl-3-(6-methylpyridin-3-yl)-1,2-oxazol-4-yl]methoxy}-2-(oxan-4-yl)-1,2,3,4-tetrahydro-2,7-naphthyridine]", "values": [
      {"measurement": "Ki", "setting": "[5]", "result": 7.4, "unit": "nM"},
      {"measurement": "activation at 1 µM", "setting": "[6]; [7]", "result": 114, "unit": "%"}
    ]},
    {"compound": "Cc1onc(-c2ccc(C(F)(F)F)nc2)c1COc1cc2c(nn1)CNCC2", "note": "[Example 15, 5-[5-methyl-4-({5H,6H,7H,8H-pyrido[3,4-c]pyridazin-3-yloxy}methyl)-1,2-oxazol-3-yl]-2-(trifluoromethyl)pyridine]", "values": [
      {"measurement": "Ki", "setting": "[5]", "result": 17.1, "unit": "nM"},
      {"measurement": "activation at 1 µM", "setting": "[6]; [7]", "result": 115, "unit": "%"}
    ]},
    {"compound": "Cc1nnn(-c2ccc(C(F)F)nc2)c1COc1cc2c(cn1)CN(C1CCOC1)CC2", "note": "(stereo not drawn) [Example 30, 6-({1-[6-(difluoromethyl)pyridin-3-yl]-4-methyl-1H-1,2,3-triazol-5-yl}methoxy)-2-(oxolan-3-yl)-1,2,3,4-tetrahydro-2,7-naphthyridine]", "values": [
      {"measurement": "Ki", "setting": "[5]", "result": 3.3, "unit": "nM"},
      {"measurement": "activation at 1 µM", "setting": "[6]; [7]", "result": 59, "unit": "%"}
    ]},
    {"compound": "Cc1onc(-c2ccc(C(F)(F)F)nc2)c1COc1cc2c(nn1)CN(CC1CCS(=O)(=O)C1)CC2", "note": "(stereo not drawn) [Example 19, 3-{[3-({5-methyl-3-[6-(trifluoromethyl)pyridin-3-yl}-1,2-oxazol-4-yl]methoxy)-5H,6H,7H,8H-pyrido[3,4-c]pyridazin-7-yl]methyl}-1lambda6-thiolane-1,1-dione tartarate salt]", "values": [
      {"measurement": "Ki", "setting": "[5]", "result": 35.5, "unit": "nM"},
      {"measurement": "activation at 1 µM", "setting": "[6]", "result": 129, "unit": "%"}
    ]}
  ]
}
